Test results: patent publication US20240083900A1, “PYRAZOLO[1,5-A]PYRAZINE DERIVATIVES AS BTK INHIBITORS” (BIOGEN MA INC., priority 2020, published 2024)
pIC50: −log10 of the molar value. Like-named read-outs stand apart in the source and are kept apart here.

Assays:
BTK = BTK (Homo sapiens (Human), UniProt Q06187); test: In Vitro BTK Kinase Assay: Btk-PolyGAT-LS Assay; assay type: biochemical; conditions: BTK enzyme 0.25 nM, ATP 10 μM, polyGAT 100 nM, 30 minutes incubation, TRF readout; for pIC50: read-out: IC50
Summary of the method: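 Human BTK activity was measured with final 10 μM ATP and 100 nM polyGAT substrate in pH 7.5 Tris buffer with 10 mM MgCl2, DTT, Triton X-100 and casein.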

[1] = tested on: CD69 expression on CD19+ B cells in human whole blood stimulated with anti-human IgD; test: In Vitro whole blood CD69 Assay; assay type: cell-based; conditions: human heparinized whole blood, anti-human IgD stimulation overnight, percentage of CD19+ B cells expressing CD69, flow cytometry
[2] = Homo sapiens, B-cell, read-out: IC50

Sequence of BTK (Q06187 whole entry): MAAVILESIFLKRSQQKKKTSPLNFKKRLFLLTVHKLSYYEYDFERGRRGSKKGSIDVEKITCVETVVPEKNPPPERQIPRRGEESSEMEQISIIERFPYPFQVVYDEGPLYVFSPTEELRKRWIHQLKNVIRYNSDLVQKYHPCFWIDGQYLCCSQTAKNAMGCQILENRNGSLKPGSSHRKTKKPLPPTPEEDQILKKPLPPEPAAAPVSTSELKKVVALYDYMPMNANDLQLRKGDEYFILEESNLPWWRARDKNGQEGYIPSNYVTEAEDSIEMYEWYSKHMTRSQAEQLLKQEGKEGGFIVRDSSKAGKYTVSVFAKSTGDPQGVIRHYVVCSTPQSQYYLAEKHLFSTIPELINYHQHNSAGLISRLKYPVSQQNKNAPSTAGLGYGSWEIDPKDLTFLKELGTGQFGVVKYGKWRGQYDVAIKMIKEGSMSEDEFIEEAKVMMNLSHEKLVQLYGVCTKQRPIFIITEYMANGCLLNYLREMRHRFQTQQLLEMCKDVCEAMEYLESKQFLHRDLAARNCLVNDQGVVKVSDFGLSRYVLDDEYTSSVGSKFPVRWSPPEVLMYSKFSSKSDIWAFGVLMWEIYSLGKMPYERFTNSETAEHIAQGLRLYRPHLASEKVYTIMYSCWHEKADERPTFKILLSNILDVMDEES

SMILES	pIC50 (BTK)	pIC50 ([1]; Homo sapiens, B-cell)	pIC50 [1, 2]	IC50 (BTK; IC50 (nM)) [nM]	pIC50 [1]
C=CC(=O)N(C)[C@H]1C[C@@](C)(Oc2nc(-c3cnn(C)c3)cn3nccc23)[C@H]1C (single isomer, unassigned) [Example 110]	> 9.00	> 6.00			
C=CC(=O)N1CCC[C@H]2[C@@H]1C[C@@]2(C)Oc1nc(-c2cnn(C)c2)cn2nccc12 (single isomer, unassigned) [Example 111]	> 9.00		> 6.00		
CC#CC(=O)N(C)[C@H]1CC[C@@H]2C[C@]2(Oc2nc(-c3cnn(C)c3)cn3nccc23)C1 (single isomer, unassigned) [Example 113]	8.00 to 9.00		5.00 to 6.00		
CC#CC(=O)N(C)[C@@H]1CC[C@H]2C[C@@]2(Oc2nc(-c3cnn(C)c3)cn3nccc23)C1 (single isomer, unassigned) [Example 115]	8.00 to 9.00		5.00 to 6.00		
CC#CC(=O)N(C)[C@H]1CC[C@H]2C[C@@]2(Oc2nc(-c3cnn(C)c3)cn3nccc23)C1 (single isomer, unassigned) [Example 116]	> 9.00		> 6.00		
C=CC(=O)N1CCO[C@](C)(COc2nc(-c3cnn(C)c3)cn3nccc23)C1 (single isomer, unassigned) [Example 117, (S) or (R)-1-(2-methyl-2-(((6-(1-methyl-1H-pyrazol-4-yl)pyrazolo[1,5-a]pyrazin-4-yl)oxy)methyl)morpholino)prop-2-en-1-one]	8.00 to 9.00		> 6.00		
C=CC(=O)N1CCO[C@@](C)(COc2nc(-c3cnn(C)c3)cn3nccc23)C1 (single isomer, unassigned) [Example 118, (R) or (S)-1-(2-methyl-2-(((6-(1-methyl-1H-pyrazol-4-yl)pyrazolo[1,5-a]pyrazin-4-yl)oxy)methyl)morpholino)prop-2-en-1-one]	> 9.00		> 6.00		
C=CC(=O)N1CC(C)(C)OC(C)(COc2nc(-c3cnn(C)c3)cn3nccc23)C1 (single isomer, unassigned) [Example 120, 1-(2,2,6-trimethyl-6-(((6-(1-methyl-1H-pyrazol-4-yl)pyrazolo[1,5-a]pyrazin-4-yl)oxy)methyl)morpholino)prop-2-en-1-one]	> 9.00		> 6.00		
CC#CC(=O)N1CC(C)(C)OC(C)(COc2nc(-c3cnn(C)c3)cn3nccc23)C1 (single isomer, unassigned) [Example 121, 1-(2,2,6-trimethyl-6-(((6-(1-methyl-1H-pyrazol-4-yl)pyrazolo[1,5-a]pyrazin-4-yl)oxy)methyl)morpholino)but-2-yn-1-one]	8.00 to 9.00		> 6.00		
C=CC(=O)N(C)[C@H]1C[C@@](C)(Oc2nc(-c3cnn(C)c3)cn3nccc23)C1(C)C (single isomer, unassigned) [Example 140]	> 9.00	> 6.00			
C=CC(=O)N(C)[C@H]1C[C@@](C)(Oc2nc(-c3cnn(C)c3)cn3nccc23)C1(C)C (single isomer, unassigned) [Example 141]				1 to 10	5.00 to 6.00
C[C@@H]1O[C@H]1C(=O)N[C@H]1CC[C@@H](Oc2nc(-c3cnn(C)c3)cn3nccc23)C1 (single isomer, unassigned) [Example 148]	8.00 to 9.00		> 6.00		
C=CC(=O)N1CCC[C@@H](Nc2nc(-c3cnn(C)c3)cn3nccc23)CC1 (single isomer, unassigned) [Example 160]	> 9.00		5.00 to 6.00		
C[C@H]1O[C@@H]1C(=O)N1CC[C@@H]2[C@H]1C[C@]2(C)Oc1nc(-c2cnn(C)c2)cn2nccc12 (single isomer, unassigned) [Example 193]	8.00 to 9.00		5.00 to 6.00		
C=CC(=O)N1CC[C@@]2(CC[C@@H](Oc3nc(-c4cnn(C)c4)cn4nccc34)C2)C1 (single isomer, unassigned) [Example 207]	8.00 to 9.00		5.00 to 6.00		
C#CC(=O)N1CCC(Oc2nc(-c3cnn(C)c3)cn3nccc23)CC1 [Example 1, 1-[4-[6-(1-methylpyrazol-4-yl)pyrazolo[1,5-a]pyrazin-4-yl]oxy-1-piperidyl]prop-2-yn-1-one]	8.00 to 9.00		< 5.00		
C=CS(=O)(=O)N1CCC(Oc2nc(-c3cnn(C)c3)cn3nccc23)CC1 [Example 3, 6-(1-methyl-1H-pyrazol-4-yl)-4-((1-(vinylsulfonyl)piperidin-4-yl)oxy)pyrazolo[1,5-a]pyrazine]	> 9.00		< 5.00		
C=CS(=O)(=O)N1CCC[C@@H](Oc2nc(-c3cnn(C)c3)cn3nccc23)C1 [Example 5, (R)-6-(1-methyl-1H-pyrazol-4-yl)-4-((1-(vinylsulfonyl)piperidin-3-yl)oxy)pyrazolo[1,5-a]pyrazine]	> 9.00		< 5.00		

SMILES	pIC50 (BTK)	pIC50 ([1]; Homo sapiens, B-cell)	pIC50 [1, 2]	IC50 (BTK; IC50 (nM)) [nM]	pIC50 [1]
C=CS(=O)(=O)N1CCC[C@H](Oc2nc(-c3cnn(C)c3)cn3nccc23)C1 [Example 6, (S)-6-(1-methyl-1H-pyrazol-4-yl)-4-((1-(vinylsulfonyl)piperidin-3-yl)oxy)pyrazolo[1,5-a]pyrazine]	6.00 to 8.00		< 5.00		
C#CC(=O)N1CCC[C@@H](Oc2nc(-c3cnn(C)c3)cn3nccc23)C1 [Example 7, (R)-1-(3-((6-(1-methyl-1H-pyrazol-4-yl)pyrazolo[1,5-a]pyrazin-4-yl)oxy)piperidin-1-yl)prop-2-yn-1-one]	> 9.00		5.00 to 6.00		
C=CC(=O)N1CC(Oc2nc(-c3cnn(C)c3)cn3nccc23)C1 [Example 9, 1-(3-((6-(1-methyl-1H-pyrazol-4-yl)pyrazolo[1,5-a]pyrazin-4-yl)oxy)azetidin-1-yl)prop-2-en-1-one]	6.00 to 8.00		< 5.00		
C/C=C\S(=O)(=O)N1CC(Oc2nc(-c3cnn(C)c3)cn3nccc23)C1 [Example 10, (Z)-6-(1-methyl-1H-pyrazol-4-yl)-4-((1-(prop-1-en-1-ylsulfonyl)azetidin-3-yl)oxy)pyrazolo[1,5-a]pyrazine]	6.00 to 8.00		< 5.00		
C=CS(=O)(=O)N1CC[C@@H](Oc2nc(-c3cnn(C)c3)cn3nccc23)C1 [Example 12, (R)-6-(1-methyl-1H-pyrazol-4-yl)-4-((1-(vinylsulfonyl)pyrrolidin-3-yl)oxy)pyrazolo[1,5-a]pyrazine]	8.00 to 9.00		< 5.00		
C#CC(=O)N1CC[C@@H](Oc2nc(-c3cnn(C)c3)cn3nccc23)C1 [Example 13, (R)-1-(3-((6-(1-methyl-1H-pyrazol-4-yl)pyrazolo[1,5-a]pyrazin-4-yl)oxy)pyrrolidin-1-yl)prop-2-yn-1-one]	> 9.00		> 6.00		
C=CC(=O)N1CCC[C@H](COc2nc(-c3cnn(C)c3)cn3nccc23)C1 [Example 14, (S)-1-(3-(((6-(1-methyl-1H-pyrazol-4-yl)pyrazolo[1,5-a]pyrazin-4-yl)oxy)methyl)piperidin-1-yl)prop-2-en-1-one]	8.00 to 9.00		< 5.00		
C=CS(=O)(=O)N1CCC[C@H](COc2nc(-c3cnn(C)c3)cn3nccc23)C1 [Example 15, (S)-6-(1-methyl-1H-pyrazol-4-yl)-4-((1-(vinylsulfonyl)piperidin-3-yl)methoxy)pyrazolo[1,5-a]pyrazine]	8.00 to 9.00		5.00 to 6.00		
C#CC(=O)N1CCC[C@H](COc2nc(-c3cnn(C)c3)cn3nccc23)C1 [Example 16, (S)-1-(3-(((6-(1-methyl-1H-pyrazol-4-yl)pyrazolo[1,5-a]pyrazin-4-yl)oxy)methyl)piperidin-1-yl)prop-2-yn-1-one]	> 9.00		> 6.00		
C=CS(=O)(=O)N1CCC(CNc2nc(-c3cnn(C)c3)cn3nccc23)CC1 [Example 19, 6-(1-methyl-1H-pyrazol-4-yl)-N-((1-(vinylsulfonyl)piperidin-4-yl)methyl)pyrazolo[1,5-a]pyrazin-4-amine]	> 9.00		> 6.00		
C=CC(=O)NC1CCCN(c2nc(-c3cnn(C)c3)cn3nccc23)C1 (stereo not shown) [Example 20, N-[1-[6-(1-methylpyrazol-4-yl)pyrazolo[1,5-a]pyrazin-4-yl]-3-piperidyl]prop-2-enamide]	6.00 to 8.00		< 5.00		
C#CC(=O)NC1CCCN(c2nc(-c3cnn(C)c3)cn3nccc23)C1 (stereo not shown) [Example 21, N-[1-[6-(1-methylpyrazol-4-yl)pyrazolo[1,5-a]pyrazin-4-yl]-3-piperidyl]prop-2-ynamide]	8.00 to 9.00		5.00 to 6.00		
Cn1cc(-c2cn3nccc3c(N3CCCC(NC(=O)/C=C/CCl)C3)n2)cn1 (stereo not shown) [Example 22, 4-chloro-N-[1-[6-(1-methylpyrazol-4-yl)pyrazolo[1,5-a]pyrazin-4-yl]-3-piperidyl]but-2-enamide]	8.00 to 9.00		5.00 to 6.00		
C#CC(=O)N(C)C1CCCN(c2nc(-c3cnn(C)c3)cc3nccn23)C1 (stereo not shown) [Example 23, N-methyl-N-[1-[7-(1-methylpyrazol-4-yl)imidazo[1,2-c]pyrimidin-5-yl]-3-piperidyl]prop-2-ynamide]	6.00 to 8.00		< 5.00		
C#CC(=O)N(C)C1CCCN(c2nc(-c3cnn(C)c3)cn3nccc23)C1 (stereo not shown) [Example 24, N-methyl-N-[1-[6-(1-methylpyrazol-4-yl)pyrazolo[1,5-a]pyrazin-4-yl]-3-piperidyl]prop-2-ynamide]	6.00 to 8.00		< 5.00		
C#CC(=O)NCC1CCCN(c2nc(-c3cnn(C)c3)cn3nccc23)C1 (stereo not shown) [Example 25, N-((1-(6-(1-methyl-1H-pyrazol-4-yl)pyrazolo[1,5-a]pyrazin-4-yl)piperidin-3-yl)methyl)propiolamide]	8.00 to 9.00		< 5.00		
C=CC(=O)NCC1CCCCN1c1nc(-c2cnn(C)c2)cn2nccc12 (stereo not shown) [Example 27, N-[[1-[6-(1-methylpyrazol-4-yl)pyrazolo[1,5-a]pyrazin-4-yl]-2-piperidyl]methyl]prop-2-enamide]	6.00 to 8.00		5.00 to 6.00		
